Measurements published in ChEMBL document CHEMBL1146919, “Triazolo-tetrahydrofluorenones as selective estrogen receptor beta agonists” (Bioorg Med Chem Lett, 2006).

Key:
[1] = Plasma clearance in Sprague-Dawley rat at 1 mg/kg, iv and 2 mg/kg, po; format: ADME, organism-based
[2] = Half life in Sprague-Dawley rat at 1 mg/kg, iv and 2 mg/kg, po; format: ADME, organism-based; details: in vivo
[3] = Bioavailability in Sprague-Dawley rat at 1 mg/kg, iv and 2 mg/kg, po; format: ADME, organism-based; details: in vivo
[4] = AUC in Sprague-Dawley rat at 1 mg/kg, iv; format: ADME, organism-based; set-up: dose 1 mg/kg, route intravenous; details: plasma
Estrogen receptor [5] = molecular target: T1, Estrogen receptor (Homo sapiens, UniProt P03372)
T1 sequence (P03372 whole entry): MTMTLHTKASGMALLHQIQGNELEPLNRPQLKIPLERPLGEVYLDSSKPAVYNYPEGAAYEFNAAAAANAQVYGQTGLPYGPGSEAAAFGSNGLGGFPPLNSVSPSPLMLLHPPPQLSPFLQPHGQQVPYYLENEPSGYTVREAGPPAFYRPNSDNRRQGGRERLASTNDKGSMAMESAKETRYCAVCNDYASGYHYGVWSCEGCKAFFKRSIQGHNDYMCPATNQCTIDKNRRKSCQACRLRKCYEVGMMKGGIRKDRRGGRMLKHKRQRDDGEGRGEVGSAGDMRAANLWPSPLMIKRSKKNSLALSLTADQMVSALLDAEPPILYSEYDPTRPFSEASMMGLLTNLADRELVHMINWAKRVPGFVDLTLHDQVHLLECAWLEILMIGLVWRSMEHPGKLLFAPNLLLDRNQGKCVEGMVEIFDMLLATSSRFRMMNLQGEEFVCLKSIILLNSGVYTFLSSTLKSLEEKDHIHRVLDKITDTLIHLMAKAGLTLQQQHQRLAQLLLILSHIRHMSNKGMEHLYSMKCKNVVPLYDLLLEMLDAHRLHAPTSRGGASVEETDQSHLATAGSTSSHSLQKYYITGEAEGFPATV
Description: Binding affinity to human recombinant ERalpha by scintillation proximity assay

Estrogen receptor beta [6] = molecular target: T2, Estrogen receptor beta (Homo sapiens, UniProt Q92731)
Description: Binding affinity to human recombinant ERbeta by scintillation proximity assay

Estrogen receptor [7] = molecular target: T1, Estrogen receptor; remark: listed apart in the source
Description: Agonist activity at human recombinant ERalpha expressed in HEK293 cells by alkaline phosphatase reporter gene transactivation assay

Estrogen receptor beta [8] = molecular target: T2, Estrogen receptor beta; remark: listed apart in the source
Description: Agonist activity at human recombinant ERbeta expressed in HEK293 cells by alkaline phosphatase reporter gene transactivation assay

T2 sequence (Q92731 whole entry): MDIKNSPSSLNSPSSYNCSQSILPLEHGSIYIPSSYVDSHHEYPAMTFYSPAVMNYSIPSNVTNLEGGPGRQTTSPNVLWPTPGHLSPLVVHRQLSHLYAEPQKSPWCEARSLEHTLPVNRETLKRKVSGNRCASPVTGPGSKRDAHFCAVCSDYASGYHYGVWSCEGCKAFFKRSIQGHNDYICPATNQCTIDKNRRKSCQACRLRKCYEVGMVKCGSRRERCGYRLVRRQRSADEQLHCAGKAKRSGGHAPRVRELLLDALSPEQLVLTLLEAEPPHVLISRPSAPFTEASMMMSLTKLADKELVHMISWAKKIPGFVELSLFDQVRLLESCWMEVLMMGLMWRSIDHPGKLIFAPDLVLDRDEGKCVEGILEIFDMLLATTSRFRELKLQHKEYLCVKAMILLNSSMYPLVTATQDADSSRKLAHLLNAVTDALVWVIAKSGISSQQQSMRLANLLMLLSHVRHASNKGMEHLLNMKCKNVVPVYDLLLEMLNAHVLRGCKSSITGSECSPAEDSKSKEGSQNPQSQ

Compound	clearance [1] [mL/min/kg]	half-life [2] [h]	bioavailability [3] [%]	AUC [4] [µM·h]	IC50 (Estrogen receptor [5]) [nM]	IC50 (Estrogen receptor beta [6]) [nM]	EC50 (Estrogen receptor [7]) [nM]	EC50 (Estrogen receptor beta [8]) [nM]
CC[C@@]12CCC(=O)C(C(F)(F)F)=C1c1ccc3nn[nH]c3c1C2	108	0.4	59	0.6	1680	11	241	4.9
CCCC12CCC(=O)C(C)=C1c1ccc3nn[nH]c3c1C2 (stereo not given)					6170	81	449	17
CCCCC1=C2c3ccc4[nH]nnc4c3CC2(CC)CCC1=O (stereo not given)					1130	43	681	60
CCCC12CCC(=O)C(Br)=C1c1ccc3nn[nH]c3c1C2 (stereo not given)					3300	43	561	18
CCC1=C2c3ccc4[nH]nnc4c3CC2(CC)CCC1=O (stereo not given)					1320	18	460	7.3
CCCC[C@@]12CCC(=O)C(Br)=C1c1ccc3[nH]nnc3c1C2	24.4	2.9	36	1.9	1910	5.7	519	5.5
CCCC[C@]12CCC(=O)C(CC)=C1c1ccc3[nH]nnc3c1C2	18.3	1.2	99	3	4750	242	391	28
CCC1=C2c3ccc4[nH]nnc4c3C[C@@]2(CC)CCC1=O					> 10000	1520		
CCCCC12CCC(=O)C(C)=C1c1ccc3[nH]nnc3c1C2 (stereo not given)					5980	27		20
CCC12CCC(=O)C(C)=C1c1ccc3[nH]nnc3c1C2 (stereo not given)					1900	24	671	20
CCCCC12CCC(=O)C(CCC)=C1c1ccc3[nH]nnc3c1C2 (stereo not given)					1250	58	1180	96
CCC12CCC(=O)C(Br)=C1c1ccc3nn[nH]c3c1C2 (stereo not given)					5170	60	1270	46
CCC12CCC(=O)C=C1c1ccc3nn[nH]c3c1C2 (stereo not given)					> 10000	3040	1230	475
CCCC[C@@]12CCC(=O)C(CC)=C1c1ccc3nn[nH]c3c1C2	62	0.4	28	0.9	220	5.1	30	0.4
CCCCC12CCC(=O)C(CC)=C1c1ccc3[nH]nnc3c1C2 (racemic)	31.6	2.9	85	1.7				

Now from value to molecule:

clearance [1] [mL/min/kg]	half-life [2] [h]	bioavailability [3] [%]	AUC [4] [µM·h]	IC50 (Estrogen receptor [5]) [nM]	IC50 (Estrogen receptor beta [6]) [nM]	EC50 (Estrogen receptor [7]) [nM]	EC50 (Estrogen receptor beta [8]) [nM]	Compound
				612	18	120	7.7	CCCC12CCC(=O)C(CC)=C1c1ccc3[nH]nnc3c1C2 (stereo not given)
				1120	7.4	870	6.5	CCCCC12CCC(=O)C(c3ccco3)=C1c1ccc3[nH]nnc3c1C2 (stereo not given)
				34	2.3	79	0.96	CCCC[C@@]12CCC(=O)C(c3cccs3)=C1c1ccc3nn[nH]c3c1C2
				81	11	901	4.3	CCC12CCC(=O)C(c3ccc(O)cc3)=C1c1ccc3[nH]nnc3c1C2 (stereo not given)
				344	23			CCCC1=C2c3ccc4[nH]nnc4c3CC2(CCC)CCC1=O (stereo not given)
				352	11	794	14	CCCC1=C2c3ccc4nn[nH]c4c3CC2(CC)CCC1=O (stereo not given)
				896	3.2	169	2.3	CCCC[C@@]12CCC(=O)C(C(F)(F)F)=C1c1ccc3[nH]nnc3c1C2
64.8	0.3	70	1	647	5.7	140	5.8	CCC1=C2c3ccc4[nH]nnc4c3C[C@]2(CC)CCC1=O
102	1.5	0	0.5	141	1.8	94	4	CCCCC12CCC(=O)C(Br)=C1c1ccc3nn[nH]c3c1C2 (racemic)
